In patent publication US12390448B2, “Prevention or of disease states due to metal dis-homeostasis via administration of posiphen to healthy or sick humans” (ANNOVIS BIO, INC., priority 2017, dated 2025):
Where “and” joins values, the source holds several entries; their conditions need not be identical. Equal values may be shown once.

Legend:
SNCA = conditions: cited from earlier work
[1] = target: T1, IRP1/H-Ferritin RNA complex (Homo sapiens, UniProt P21399); assay: MST binding of Posiphen to IRP1/H-Ferritin RNA complex; conditions: IRP1/H-Ferritin 2, 250 nM; Posiphen tartrate
T1 sequence (P21399 1-889): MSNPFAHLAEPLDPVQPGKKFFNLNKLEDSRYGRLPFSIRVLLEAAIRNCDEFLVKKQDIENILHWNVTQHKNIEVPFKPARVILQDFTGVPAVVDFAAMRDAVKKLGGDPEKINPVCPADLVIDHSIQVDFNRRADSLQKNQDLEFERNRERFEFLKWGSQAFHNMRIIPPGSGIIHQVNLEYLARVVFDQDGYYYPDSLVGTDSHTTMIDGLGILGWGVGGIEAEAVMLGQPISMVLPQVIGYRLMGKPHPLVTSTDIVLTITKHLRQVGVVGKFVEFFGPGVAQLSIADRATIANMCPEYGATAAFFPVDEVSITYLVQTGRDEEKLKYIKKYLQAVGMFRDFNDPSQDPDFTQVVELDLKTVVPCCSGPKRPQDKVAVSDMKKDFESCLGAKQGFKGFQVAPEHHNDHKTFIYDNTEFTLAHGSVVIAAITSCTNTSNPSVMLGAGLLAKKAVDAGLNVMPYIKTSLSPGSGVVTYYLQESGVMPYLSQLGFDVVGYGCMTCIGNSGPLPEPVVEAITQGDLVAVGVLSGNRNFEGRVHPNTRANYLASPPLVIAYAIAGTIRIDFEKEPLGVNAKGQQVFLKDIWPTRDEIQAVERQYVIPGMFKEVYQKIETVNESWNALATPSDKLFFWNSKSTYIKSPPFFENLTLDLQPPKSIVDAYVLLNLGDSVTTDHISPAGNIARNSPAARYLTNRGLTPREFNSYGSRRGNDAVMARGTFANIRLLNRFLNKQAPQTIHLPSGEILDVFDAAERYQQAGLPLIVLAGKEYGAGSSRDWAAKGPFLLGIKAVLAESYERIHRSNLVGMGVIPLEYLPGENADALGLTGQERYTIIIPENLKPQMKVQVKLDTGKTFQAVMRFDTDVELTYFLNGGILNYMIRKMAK
Method: (§1) Microscale thermophoresis (MST) binding experiments were done to assess binding in vitro between the different components. MST binding experiments were performed by incubating N-termini labeled protein (2 nM) with serial 2-fold dilutions of IRE RNAs, H-Ferritin ([…]) or APP ([…]) for 10 min in incubation buffer (Tris pH 7.4, 0.5%, 15 mM NaCl and 0.1% Prionex). IPR-1 was N-termini labeled with RED-NHS amino reactive labeling kit (NanoTemper Technologies, Germany). For determination of Posiphen binding, reactions containing IPR1 (2 nM), IRP1/H-Ferritin (2, 250 nM), or IRP1/APP (2, 600 nM) were incubated for 10 min with 2-fold dilutions of Posiphen tartrate. After incubation, samples were centrifuged at 13,000 rpm for 2 minutes before being loaded into standard capillaries provided by the manufacturer. Fluorescence values from the binding reactions were determined using the Monolith NT.115 (Nano Temper Technologies). Kd values were using the NanoTemper Technologies software. Conditions were standardized.

IRP1/APP RNA complex = target: T2, IRP1/APP RNA complex (Homo sapiens, UniProt P21399); assay: MST binding of Posiphen to IRP1/APP RNA complex; conditions: IRP1/APP 2, 600 nM; Posiphen tartrate; read-out: Kd, binding of Posiphen to APP IRE/IRP1 complex
T2 sequence (P21399 1-889): T1 sequence (P21399 1-889)
Method: as §1

aSYN = aSYN in enteric nervous system of transgenic PD mice; type: in vivo; conditions: PAC-Tg(SNCAA53T) mice, 21 weeks
Method: In Example 6, the effect of Posiphen on mice homozygous for the PAC-Tg(SNCAA53T) transgene was tested over the course of 21 weeks.

retinal neurons = assay: Acute glaucoma in rats, retinal cell death; type: in vivo; conditions: acute glaucoma by raised intraocular pressure
Excerpt: When acute glaucoma is induced by increasing the pressure in an eye, the retina gets destroyed. In Example 10, acute glaucoma was induced in rats by increasing intraocular pressure by micro-injection of saline into the anterior chamber. This induces large amounts of apoptotic cell death in the retina. There are twice as many dead cells in high pressure retinas of rats treated with vehicle versus control untreated rats. Posiphen rescued 72% of the retinal neurons. The results are depicted in FIG. 23. Administration of Posiphen to those rats preserves the retina and protects the retinal cells from dying.

[2] = tested on: neurotoxic aggregating proteins; assay: Translation of neurotoxic aggregating proteins in healthy mouse brain; type: in vivo
Excerpt: Therefore, the original data concerning the effects of Posiphen working under all conditions is wrong. It only works in stressed cells, dividing cells and sick cells, e.g., those cells that have high levels of iron.

[3] = cited from earlier work
IRP1 = target: T3, IRP1 (Homo sapiens, UniProt P21399); assay: Microscale thermophoresis (MST) binding of IRE RNAs to IRP1; conditions: cell free, labeled IRP1 2 nM, without Posiphen; read-out: Kd of IRE RNA binding to IRP1
T3 sequence (P21399 1-889): T1 sequence (P21399 1-889)
Method: as §1

C[C@]12CC[C@H]3[C@@H](CC[C@]4(O)C[C@@H](O)CC[C@]34C=O)[C@@]1(O)CC[C@@H]2C1=CC(=O)OC1 [strophanthidine]
SNCA expression in neural cells, Western blotting (SNCA): selectively blocked

CN1CC[C@]2(C)c3cc(OC(=O)Nc4ccccc4)ccc3N(C)C12 (stereo partly drawn) [Posiphen, (3aR)-1,3a,8-trimethyl-1,2,3,3a,8,8a-hexahydropyrrolo[2,3-b]indol-5-ylphenylcarbamate]
binding of Posiphen to the IRP1/H-Ferritin RNA complex [1]: no binding
Kd (IRP1/APP RNA complex): 3.2 nM and 3.22 nM
inhibition of aSYN in enteric nerves (aSYN): about 40%
retinal neurons rescued (retinal neurons): 72%
translation of neurotoxic aggregating proteins [2]: does not inhibit
tolerability ([3]; doses up to 4×60 mg daily×10 days, humans): well tolerated
terminal half-life in plasma ([3]; human, all doses): 4.3 to 4.7 h

H-Ferritin: H-Ferritin IRE RNA oligo GGGGUUUCCUGCUUCAACAGUGCUUGGACGGAACC (RNA, backbone not given here)
Kd (IRP1): 88.5 nM

APP: APP IRE RNA oligo GGUGGCGGCGCGGGCAGAGCAAGGACGCGGCGGAU (RNA, backbone not given here)
Kd (IRP1): 225 nM
